According to patent US20240109900A1, “AZABICYCLIC SHP2 INHIBITORS” (IRBM S.P.A., priority 2021, published 2024):
pIC50: −log10 of the molar value. Where two headings read alike, the source gives them in different places.

Experiments:
[1] = target: SHP-2 enzyme (Met1-Leu525) (Homo sapiens (Human), UniProt Q06124); experiment: SHP2 inhibition enzymatic assay; type: biochemical; settings: 0.5 nM SHP-2 activated by 500 nM IRS1 peptide, 75 μM DiFMUP substrate; read-out: SHP2wt-IC50
Method in brief: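 SHP-2 (Met1-Leu525), 0.5 nM, activated with 500 nM IRS1 bis-phosphopeptide, preincubated 30 min with compounds in HEPES pH 7.2 buffer with 5 mM DTT. 75 μM DiFMUP added for 30 min at room temperature, stopped with bpV; fluorescence read. IC50 from four-parameter logistic fit of % inhibition.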

[2] = system: ERK phosphorylation in KYSE-520 cells; experiment: Phospho-ERK cellular assay; type: cell-based; settings: KYSE-520 cells, 2 h at 37° C., phospho-ERK1/2 (Thr202/Tyr204) TR-FRET, read-out: PERK IC50
Method in brief: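 TR-FRET read-out of ERK1/2 Thr202/Tyr204 phosphorylation was taken after overnight antibody incubation at room temperature. Before that, KYSE-520 cells were treated 2 h at 37 °C with compound dilutions and lysed 30 min. Percent inhibition relative to vehicle and cell-free wells was fitted four-parametrically to give IC50.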

Sequence of SHP-2 enzyme (Met1-Leu525) (Q06124 1-525): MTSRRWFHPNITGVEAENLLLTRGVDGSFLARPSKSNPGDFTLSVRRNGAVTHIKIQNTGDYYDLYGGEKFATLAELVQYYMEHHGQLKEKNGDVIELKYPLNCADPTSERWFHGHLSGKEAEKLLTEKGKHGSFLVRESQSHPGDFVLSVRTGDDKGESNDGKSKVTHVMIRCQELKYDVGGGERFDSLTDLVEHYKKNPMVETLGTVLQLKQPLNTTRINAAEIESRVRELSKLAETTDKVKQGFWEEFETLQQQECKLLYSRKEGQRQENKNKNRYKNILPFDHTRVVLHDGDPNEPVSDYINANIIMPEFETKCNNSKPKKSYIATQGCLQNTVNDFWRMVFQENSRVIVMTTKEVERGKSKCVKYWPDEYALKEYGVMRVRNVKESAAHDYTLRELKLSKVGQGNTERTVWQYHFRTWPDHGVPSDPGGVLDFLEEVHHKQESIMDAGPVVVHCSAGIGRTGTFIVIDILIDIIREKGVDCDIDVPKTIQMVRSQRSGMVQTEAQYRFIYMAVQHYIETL

SMILES	pIC50 [1]	pIC50 ([2]; Homo sapiens, KYSE-520, 2 h)	pIC50 [2]
COCCn1cc2c(Cl)c(-c3n[nH]c4nc(N5CC[C@@H]6[C@H](C5)[C@@]6(CN)c5ccccc5F)cnc34)ccc2n1 [Example 393, ((1S,6R,7R)-3-(3-(4-chloro-2-(2-methoxyethyl)-2H-indazol-5-yl)-1H-pyrazolo[3,4-b]pyrazin-6-yl)-7-(2-fluorophenyl)-3-azabicyclo[4.1.0]heptan-7-yl)methanamine]	> 6.30	> 6.00	–
Cn1cc2cc(-c3ccc4nc(N5CC[C@H]6[C@@H](C5)[C@]6(CN)c5ccccc5F)ccc4n3)ccc2n1 [Example 394, ((1R,6S,7S)-7-(2-fluorophenyl)-3-(6-(2-methyl-2H-indazol-5-yl)-1,5-naphthyridin-2-yl)-3-azabicyclo[4.1.0]heptan-7-yl)methanamine]	< 5.52	> 6.00	–
NC[C@]1(c2ccccc2F)[C@@H]2CCN(c3cnc4nc(Sc5ccnc(N)c5Cl)ccc4n3)C[C@@H]21 [Example 395, 4-((2-((1S,6R,7R)-7-(aminomethyl)-7-(2-fluorophenyl)-3-azabicyclo[4.1.0]heptan-3-yl)pyrido[2,3-b]pyrazin-6-yl)thio)-3-chloropyridin-2-amine]	> 6.30	> 6.00	–
Cn1cnc2ccc(-c3n[nH]c4nc(N5CC[C@@H]6[C@H](C5)[C@@]6(CN)c5cc(F)ccc5F)cnc34)c(Cl)c21 [Example 396, ((1S,6R,7R)-3-(3-(7-chloro-1-methyl-1H-benzo[d]imidazol-6-yl)-1H-pyrazolo[3,4-b]pyrazin-6-yl)-7-(2,5-difluorophenyl)-3-azabicyclo[4.1.0]heptan-7-yl)methanamine]	> 6.30	> 6.00	–
NC[C@]1(c2ccccc2F)[C@@H]2CCN(c3cnc4c(Sc5ccnc(N)c5Cl)n[nH]c4n3)C[C@@H]21 [Example 397, 4-((6-((1S,6R,7R)-7-(aminomethyl)-7-(2-fluorophenyl)-3-azabicyclo[4.1.0]heptan-3-yl)-1H-pyrazolo[3,4-b]pyrazin-3-yl)thio)-3-chloropyridin-2-amine]	> 6.30	> 6.00	–
NC[C@]1(c2ccccc2F)[C@@H]2CCN(c3cnc4nc(Sc5ccnc(-n6cccn6)c5Cl)ccc4n3)C[C@@H]21 [Example 398, ((1S,6R,7R)-3-(6-((3-chloro-2-(1H-pyrazol-1-yl)pyridin-4-yl)thio)pyrido[2,3-b]pyrazin-2-yl)-7-(2-fluorophenyl)-3-azabicyclo[4.1.0]heptan-7-yl)methanamine]	> 6.30	> 6.00	–
COc1ccc(-c2n[nH]c3nc(N4CC[C@@H]5[C@H](C4)[C@@]5(CN)c4ccccc4F)cnc23)cc1F [Example 399]	> 6.30	–	> 6.00
Cn1cc2c(Cl)c(Sc3ccc4nc(N5CC[C@@H]6[C@H](C5)[C@@]6(CN)c5ccccc5F)cnc4n3)ccc2n1 [Example 400, ((1S,6R,7R)-3-(6-((4-chloro-2-methyl-2H-indazol-5-yl)thio)pyrido[2,3-b]pyrazin-2-yl)-7-(2-fluorophenyl)-3-azabicyclo[4.1.0]heptan-7-yl)methanamine]	> 6.30	> 6.00	–
NC[C@]1(c2ccccc2F)[C@@H]2CCN(c3cnc(Sc4ccnc(N)c4Cl)cn3)C[C@@H]21 [Example 401, 4-((5-((1S,6R,7R)-7-(aminomethyl)-7-(2-fluorophenyl)-3-azabicyclo[4.1.0]heptan-3-yl)pyrazin-2-yl)thio)-3-chloropyridin-2-amine]	> 6.30	> 6.00	–
NC[C@]1(c2cc(F)ccc2F)[C@@H]2CCN(c3cnc(Sc4ccnc(-n5cccn5)c4Cl)cn3)C[C@@H]21 [Example 402, ((1S,6R,7R)-3-(5-((3-chloro-2-(1H-pyrazol-1-yl)pyridin-4-yl)thio)pyrazin-2-yl)-7-(2,5-difluorophenyl)-3-azabicyclo[4.1.0]heptan-7-yl)methanamine]	> 6.30	> 6.00	–
NCC1(c2ccccc2F)[C@@H]2CCN(c3cnc(Sc4ccnc(-n5cccn5)c4Cl)cn3)CC[C@@H]21 (stereo partly drawn) [Example 403, ((1R,7S)-4-(5-((3-chloro-2-(1H-pyrazol-1-yl)pyridin-4-yl)thio)pyrazin-2-yl)-8-(2-fluorophenyl)-4-azabicyclo[5.1.0]octan-8-yl)methanamine]	> 6.30	< 5.30	–
Cn1cc2c(Cl)c(-c3n[nH]c4nc(N5CC[C@@H]6[C@H](CC5)C6(CN)c5ccccc5F)cnc34)ccc2n1 (stereo partly drawn) [Example 404, ((1R,7S)-4-(3-(4-chloro-2-methyl-2H-indazol-5-yl)-1H-pyrazolo[3,4-b]pyrazin-6-yl)-8-(2-fluorophenyl)-4-azabicyclo[5.1.0]octan-8-yl)methanamine]	> 6.30	> 6.00	–
NC[C@]1(c2ccccc2F)[C@@H]2CCN(c3cnc4c(-c5ccc6[nH]ccc6c5Cl)n[nH]c4n3)C[C@@H]21 [Example 405, ((1S,6R,7R)-3-(3-(4-chloro-1H-indol-5-yl)-1H-pyrazolo[3,4-b]pyrazin-6-yl)-7-(2-fluorophenyl)-3-azabicyclo[4.1.0]heptan-7-yl)methanamine]	> 6.30	> 6.00	–
NC[C@]1(c2ccccc2F)[C@@H]2CCN(c3cnc4nc(N5CCCc6ncccc65)ccc4n3)C[C@@H]21 [Example 406, ((1S,6R,7R)-3-(6-(3,4-dihydro-1,5-naphthyridin-1(2H)-yl)pyrido[2,3-b]pyrazin-2-yl)-7-(2-fluorophenyl)-3-azabicyclo[4.1.0]heptan-7-yl)methanamine]	> 6.30	> 6.00	–
NC[C@]1(c2ccccc2F)[C@@H]2CCN(c3cnc4nc(Sc5ccncc5)ccc4n3)C[C@@H]21 [Example 407, ((1S,6R,7R)-7-(2-fluorophenyl)-3-(6-(pyridin-4-ylthio)pyrido[2,3-b]pyrazin-2-yl)-3-azabicyclo[4.1.0]heptan-7-yl)methanamine]	> 6.30	> 6.00	–
NC[C@]1(c2ccccc2F)[C@@H]2CCN(c3cc(=O)n4cc(-c5cccc(Cl)c5Cl)ccc4n3)C[C@@H]21 [Example 408, 2-((1S,6R,7R)-7-(aminomethyl)-7-(2-fluorophenyl)-3-azabicyclo[4.1.0]heptan-3-yl)-7-(2,3-dichlorophenyl)-4H-pyrido[1,2-a]pyrimidin-4-one]	> 6.30	< 5.30	–
NC[C@]1(c2ccccc2F)[C@@H]2CCN(c3cnc4nc(Oc5ccc(F)cc5)ccc4n3)C[C@@H]21 [Example 409, ((1S,6R,7R)-3-(6-(4-fluorophenoxy)pyrido[2,3-b]pyrazin-2-yl)-7-(2-fluorophenyl)-3-azabicyclo[4.1.0]heptan-7-yl)methanamine]	> 6.30	> 6.00	–
NC[C@]1(c2ccccc2F)[C@@H]2CCN(c3cc(=O)n4cc(Sc5ccnc(N)c5Cl)ccc4n3)C[C@@H]21 [Example 410, 7-((2-amino-3-chloropyridin-4-yl)thio)-2-((1S,6R,7R)-7-(aminomethyl)-7-(2-fluorophenyl)-3-azabicyclo[4.1.0]heptan-3-yl)-4H-pyrido[1,2-a]pyrimidin-4-one]	5.52 to 6.30	< 5.30	–
Cc1nc(N2CC[C@@H]3[C@H](C2)[C@@]3(CN)c2cc(F)ccc2F)cc(=O)n1-c1cccc(Cl)c1Cl [Example 411, 6-((1S,6R,7R)-7-(aminomethyl)-7-(2,5-difluorophenyl)-3-azabicyclo[4.1.0]heptan-3-yl)-3-(2,3-dichlorophenyl)-2-methylpyrimidin-4(3H)-one]	< 5.52	–	< 5.30
Cc1nc(N2CC[C@@H]3[C@H](C2)[C@@]3(CN)c2cc(F)ccc2F)cc(=O)n1-c1cccc(Cl)c1Cl [Example 412, 6-((1S,6R,7R)-7-(aminomethyl)-7-(2,5-difluorophenyl)-3-azabicyclo[4.1.0]heptan-3-yl)-3-(2,3-dichlorophenyl)-2-methylpyrimidin-4(3H)-one]	> 6.30	–	> 6.00
NC[C@]1(c2ccccc2F)[C@@H]2CCN(c3cnc4c(-c5ccc6c(cnn6C6CC6)c5Cl)n[nH]c4n3)C[C@@H]21 [Example 413]	> 6.30	–	> 6.00
NC[C@]1(c2cc(F)ccc2F)[C@@H]2CCN(c3cnc(Sc4ccnc(N)c4Cl)c(N)n3)C[C@@H]21 [Example 414, 3-((2-amino-3-chloropyridin-4-yl)thio)-6-((1S,6R,7R)-7-(aminomethyl)-7-(2,5-difluorophenyl)-3-azabicyclo[4.1.0]heptan-3-yl)pyrazin-2-amine]	> 6.30	> 6.00	–
Cn1cc2cc(-c3ccc4nc(N5CC[C@@H]6[C@H](C5)[C@@]6(CN)c5ccccc5F)cnc4n3)ccc2n1 [Example 415, ((1S,6R,7R)-7-(2-fluorophenyl)-3-(6-(2-methyl-2H-indazol-5-yl)pyrido[2,3-b]pyrazin-2-yl)-3-azabicyclo[4.1.0]heptan-7-yl)methanamine]	> 6.30	> 6.00	–
NC[C@]1(c2ccccc2F)[C@@H]2CCN(c3nccn4c(-c5cccc(Cl)c5Cl)ncc34)C[C@@H]21 [Example 416, ((1S,6R,7R)-3-(3-(2,3-dichlorophenyl)imidazo[1,5-a]pyrazin-8-yl)-7-(2-fluorophenyl)-3-azabicyclo[4.1.0]heptan-7-yl)methanamine]	> 6.30	< 5.30	–
NC[C@]1(c2ccccc2F)[C@@H]2CCN(c3cnc4c(-c5ccc6c(c5)ncn6C(F)F)n[nH]c4n3)C[C@@H]21 [Example 418]	> 6.30	–	> 6.00
